In PubChem BioAssay AID248 (DTP/NCI, 2004):
Values joined by “and” are separate entries in the source; they are usually repeats but may differ in a detail not shown here. Identical values can stand only once. Toxic doses and inconclusive results are not listed. Rule as the data show it: active = T/C of 150% or more; inactive = T/C below 125%.

System: L1210 leukemia ip in BDF1 mice, survival T/C
Test: NCI In Vivo Anticancer Drug Screen. Data for tumor model L1210 Leukemia (intraperitoneal) in B6D2F1 (BDF1) mice
Details: endpoint: mean survival time, higher = longer survival
Summary of the method: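 Read-out is survival time, reported as the treated-group measurement over the vehicle-control measurement.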

[1] = dose: 50.0 mg/kg/injection, schedule: Q01DX001 (ip), vehicle: saline
[2] = dose: 100.0 mg/kg/injection, schedule: Q01DX001 (ip), vehicle: saline
[3] = dose: 200.0 mg/kg/injection, schedule: Q01DX001 (ip), vehicle: saline
[4] = dose: 100.0 mg/kg/injection, schedule: Q01DX009 (ip), vehicle: Klucel (hydroxypropylcellulose) (HPC)
[5] = dose: 200.0 mg/kg/injection, schedule: Q01DX009 (ip), vehicle: Klucel (hydroxypropylcellulose) (HPC)
[6] = dose: 400.0 mg/kg/injection, schedule: Q01DX009 (ip), vehicle: Klucel (hydroxypropylcellulose) (HPC)
[7] = dose: 400.0 mg/kg/injection, schedule: Q01DX001 (ip), vehicle: saline
[8] = dose: 50.0 mg/kg/injection, schedule: Q01DX009 (ip), vehicle: saline
[9] = dose: 25.0 mg/kg/injection, schedule: Q01DX009 (ip), vehicle: saline
[10] = dose: 25.0 mg/kg/injection, schedule: Q04DX003 (ip), vehicle: saline
[11] = dose: 50.0 mg/kg/injection, schedule: Q04DX003 (ip), vehicle: saline
[12] = dose: 100.0 mg/kg/injection, schedule: Q01DX009 (ip), vehicle: saline
[13] = dose: 100.0 mg/kg/injection, schedule: Q04DX003 (ip), vehicle: saline
[14] = dose: 100.0 mg/kg/injection, schedule: Q04DX003 (ip), vehicle: Klucel (hydroxypropylcellulose) (HPC)
[15] = dose: 200.0 mg/kg/injection, schedule: Q04DX003 (ip), vehicle: Klucel (hydroxypropylcellulose) (HPC)
[16] = dose: 400.0 mg/kg/injection, schedule: Q04DX003 (ip), vehicle: Klucel (hydroxypropylcellulose) (HPC)
[17] = dose: 50.0 mg/kg/injection, schedule: Q01DX009 (ip), vehicle: saline with Tween-80
[18] = dose: 100.0 mg/kg/injection, schedule: Q01DX009 (ip), vehicle: saline with Tween-80
[19] = dose: 200.0 mg/kg/injection, schedule: Q01DX009 (ip), vehicle: saline with Tween-80
[20] = dose: 200.0 mg/kg/injection, schedule: Q01DX009 (ip), vehicle: saline
[21] = dose: 400.0 mg/kg/injection, schedule: Q01DX009 (ip), vehicle: saline

Measured: T/C

NC(=O)c1ncn(C2OC(CO)C(O)C2O)c1N (configuration not stated)
inactive: [1] 111 % of control | [2] 111 % of control | [3] 114 % of control

O=C(Nc1nccs1)Nc1ccc(Cl)cc1[N+](=O)[O-]
inactive: [4] 105 % of control | [5] 100 % of control | [6] 102 % of control

CC12CC(O)C(C=C1c1ccccc1)C2(C)C (configuration not stated)
inactive: dose: 100.0 mg/kg/injection, schedule: Q04DX002 (ip), vehicle: other 86 % of control | dose: 200.0 mg/kg/injection, schedule: Q04DX002 (ip), vehicle: other 93 % of control | dose: 400.0 mg/kg/injection, schedule: Q04DX002 (ip), vehicle: other 90 % of control

CCOC1=CCCCC1
inactive: [1] 101 % of control | [2] 103 % of control | [3] 103 % of control | [7] 101 % of control

CCc1cccc[n+]1Cc1ccccc1
inactive: [8] 90 % of control

CC(N)C(O)c1cccc(O)c1 (configuration not stated)
inactive: dose: 6.25 mg/kg/injection, schedule: Q01DX009 (ip), vehicle: saline 117 % of control | dose: 12.5 mg/kg/injection, schedule: Q01DX009 (ip), vehicle: saline 100 % of control | [9] 105 % of control | [10] 108 % of control | [8] 100 % of control | [11] 105 % of control | [12] 117 % of control | [13] 97 % of control

Cc1cc(=O)n(/C=C/C(=O)O)c2ccccc12
inactive: [14] 97 % of control | [15] 112 % of control | [16] 94 % of control

CCCCCCN(/N=C\C(=O)O)C(N)=O
inactive: [17] 103 % of control | [18] 88 % of control | [19] 98 % of control

Cc1cccc(NC(=O)CCc2ccc(Cl)cc2)n1
inactive: [2] 95 % of control

Cc1cc(N(CCOS(C)(=O)=O)CCOS(C)(=O)=O)ccc1N=O
inactive: dose: 62.5 micrograms/kg/injection, schedule: Q01DX010 (ip), vehicle: saline 121 % of control

Cc1ccc(S(=O)(=O)N=[N+]=[N-])cc1
inactive: dose: 100.0 mg/kg/injection, schedule: Q01DX001 (ip), vehicle: Klucel (hydroxypropylcellulose) (HPC) 95 % of control | [4] 107 % of control | [14] 95 % of control | dose: 200.0 mg/kg/injection, schedule: Q01DX001 (ip), vehicle: Klucel (hydroxypropylcellulose) (HPC) 105 % of control | [5] 107 % of control | [15] 104 % of control | dose: 400.0 mg/kg/injection, schedule: Q01DX001 (ip), vehicle: Klucel (hydroxypropylcellulose) (HPC) 100 % of control | [6] 105 % of control | [16] 107 % of control

CCOC(=O)Nc1ccc(NC(=O)OCC)cc1
inactive: [4] 89 % of control | [14] 96 % of control | [5] 89 % of control | [15] 93 % of control | [16] 111 % of control

C[N+](C)(C)Cc1cccc([N+](=O)[O-])c1
inactive: dose: 12.0 mg/kg/injection, schedule: Q01DX009 (ip), vehicle: saline 90 % of control | [9] 92 % of control | [1] 98 % of control | [8] 93 % of control

COc1ccc(OC)c(NC(=O)c2ccc(Cl)cc2Cl)c1
inactive: [4] 95 % of control | [5] 93 % of control | [6] 95 % of control

CC(C)(C)S(=O)(=O)CCCCS(=O)(=O)C(C)(C)C
inactive: [2] 102 % of control | [12] 104 % of control | dose: 100.0 mg/kg/injection, schedule: Q04DX003 (ip), vehicle: acetone 100 % of control | [3] 94 % of control | [20] 96 % of control | dose: 200.0 mg/kg/injection, schedule: Q04DX003 (ip), vehicle: acetone 96 % of control | [7] 88 % of control | [21] 105 % of control | dose: 400.0 mg/kg/injection, schedule: Q04DX003 (ip), vehicle: acetone 89 % of control

CCC1(C)CCC2C(=CCC3C(C)(C(=O)O)CCCC23C)C1 (configuration not stated)
inactive: [18] 91 % of control | [19] 93 % of control | dose: 400.0 mg/kg/injection, schedule: Q01DX009 (ip), vehicle: saline with Tween-80 86 % of control

O=C(C=C(C(F)(F)F)C(F)(F)F)c1ccc(C(=O)C=C(C(F)(F)F)C(F)(F)F)cc1
inactive: dose: 12.5 mg/kg/injection, schedule: Q01DX009 (ip), vehicle: saline with Tween-80 89 % of control | dose: 25.0 mg/kg/injection, schedule: Q01DX009 (ip), vehicle: saline with Tween-80 100 % of control | [17] 94 % of control and 101 % of control

COc1cc(N(CCCl)CCCl)ccc1C=Nc1ccc2c(c1)nc(C)n2C
inactive: dose: 68.8 mg/kg/injection, schedule: Q04DX002 (ip), vehicle: Klucel (hydroxypropylcellulose) (HPC) 104 % of control | dose: 137.5 mg/kg/injection, schedule: Q04DX002 (ip), vehicle: Klucel (hydroxypropylcellulose) (HPC) 101 % of control | dose: 275.0 mg/kg/injection, schedule: Q04DX002 (ip), vehicle: Klucel (hydroxypropylcellulose) (HPC) 117 % of control

O=C(Nc1ccc(Cl)c(Cl)c1)OCC1CC2C=CC1C2 (configuration not stated)
inactive: [4] 100 % of control | [5] 97 % of control | [6] 106 % of control

C[CH2][Ge]1([CH2]C)[CH2]CC2(CCN(CCCN(C)C)C2)C[CH2]1
inactive: dose: 4.0 mg/kg/injection, schedule: Q01DX009 (ip), vehicle: saline 95 % of control | dose: 8.0 mg/kg/injection, schedule: Q01DX009 (ip), vehicle: saline 104 % of control | dose: 16.0 mg/kg/injection, schedule: Q01DX009 (ip), vehicle: saline 102 % of control | dose: 25.0 mg/kg/injection, schedule: Q01DX001 (ip), vehicle: saline 92 % of control | [9] 104 % of control and 107 % of control | dose: 25.0 mg/kg/injection, schedule: Q04DX002 (ip), vehicle: saline 106 % of control and 111 % of control | [10] 95 % of control | dose: 32.0 mg/kg/injection, schedule: Q01DX009 (ip), vehicle: saline 104 % of control | [1] 96 % of control | [8] 98 % of control and 104 % of control | dose: 50.0 mg/kg/injection, schedule: Q04DX002 (ip), vehicle: saline 98 % of control and 109 % of control | [11] 91 % of control | dose: 64.0 mg/kg/injection, schedule: Q01DX009 (ip), vehicle: saline 104 % of control | [2] 110 % of control | [12] 88 % of control and 91 % of control and 92 % of control | [13] 95 % of control

CCN(CC)c1ccc(Cc2ccc3c(c2O)C(=O)c2c(O)cccc2C3=O)cc1
inactive: [12] 94 % of control | dose: 100.0 mg/kg/injection, schedule: Q04DX002 (ip), vehicle: saline 101 % of control | [20] 96 % of control | dose: 200.0 mg/kg/injection, schedule: Q04DX002 (ip), vehicle: saline 92 % of control | [21] 97 % of control | dose: 400.0 mg/kg/injection, schedule: Q04DX002 (ip), vehicle: saline 89 % of control

CCCCCCC1(C)CCC(=O)O1 (configuration not stated)
inactive: [2] 94 % of control | [3] 94 % of control | [7] 100 % of control

Cc1cc(Cl)nc2ccc(Cc3ccc4nc(Cl)cc(C)c4c3)cc12
inactive: [2] 91 % of control | [3] 94 % of control | [7] 96 % of control

COc1ccc(OC)c(NC(=O)Nc2cc(Cl)ccc2C)c1
inactive: [4] 89 % of control | [5] 93 % of control
